Laboratory results taken from patent US6797714B2, “Carboxyl substituted chroman derivatives useful as beta 3 adrenoreceptor agonists” (Bayer Pharmaceuticals Corporation, priority 1997, dated 2004).

melting point [°C] | Compound
234 to 235 | CCOC(=O)c1ccc2c(c1)CCC(CNC[C@H](O)c1cccc(Cl)c1)O2.Cl (some centres unmarked)
189 to 190 | CCOC(=O)CCc1ccc2c(c1)CCC(CNC[C@H](O)c1cccc(Cl)c1)O2.Cl (some centres unmarked)
